{"source": "paper PMC4519256", "about": "“Expanding the Described Metabolome of the Marine Cyanobacterium Moorea producens JHB through Orthogonal Natural Products Workflows” (PLoS ONE, 2015)", "key": {"[1]": {"tested_on": "actin", "parameters": "method as in PMID 12088429", "details": "cited from earlier work"}, "[2]": {"tested_on": "human carcinoma of the nasopharynx (KB) cell line", "parameters": "method as in PMID 15974628", "details": "cited from earlier work"}, "[3]": {"tested_on": "human small cell lung cancer (NCI-H187) cell line", "parameters": "method as in PMID 15974628", "details": "cited from earlier work"}, "[4]": {"tested_on": "veratridine-stimulated Ca2+ influx in neocortical neurons", "test": "Antagonism of veratridine-stimulated Ca2+ influx in neocortical neurons (fluo-3)", "type": "cell-based, Swiss-Webster mice", "details": "for IC50: Neuron, primary mouse neocortical neurons, three-parameter logistic fit", "method": "(§1) Primary cultures of neocortical neurons were obtained from embryonic day 16 Swiss-Webster mice as described elsewhere. Briefly, pregnant mice were euthanized by CO2 asphyxiation and embryos were removed under sterile conditions. Neocortices were collected, stripped of meninges, minced by trituration with a Pasteur pipette, and treated with trypsin for 25 min at 37°C. The cells were then dissociated by two successive trituration and sedimentation steps in soybean trypsin inhibitor and DNase containing isolation buffer, centrifuged, and resuspended in Eagle’s minimal essential medium with Earle’s salt (MEM) and supplemented with 1 mM L-glutamine, 10% fetal bovine serum, 10% horse serum, 100 IU/mL penicillin, and 0.10 mg/mL streptomycin (pH 7.4). Cells were plated onto poly-L-lysine-coated 96-well (9 mm), clear-bottomed, black-well culture plates (MidSci, St. Louis, USA) at a density of 1.5 × 10^5 cells/well. Cells were then incubated at 37°C in a 5% CO2 and 95% humidity atmosphere. The culture media was changed every other day, starting from day 5 in-vitro using a serum-free growth medium containing Neurobasal Medium supplemented with B-27, 100 IU/mL penicillin, 0.10 mg/mL streptomycin, and 0.2 mM L-glutamine. Neocortical cultures were used in experiments between 10–11 days in-vitro. All animal use protocols were approved by the Institutional Animal Care and Use Committee (IACUC) of Creighton University.\nCells grown in 96-well plates were used for determination of intracellular Ca^2+ concentration ([Ca^2+]i). Briefly, the growth medium was removed and replaced with dye-loading medium (100 μL per well) containing 4 μM fluo-3 AM and 0.04% pluronic acid in Locke's buffer. […] The cells were incubated in the presence or absence of jamaicamides for 5–7 minutes at 37°C in a 5% CO2 and 95% humidity atmosphere prior to transfer to a FLEX Station II (Molecular Devices) benchtop scanning fluorescence chamber. The fluorescence measurements were performed at 37°C. The cells were excited at 488 nm and Ca^2+-bound fluo-3 emission was recorded at 538 nm at 2 s intervals. After recording baseline fluorescence for 60 s, either vehicle or veratridine was added to each well at a rate of 26 μL/s; the fluorescence was then monitored for an additional 200 s.\n(§2) The Fluo-3 and SBFI raw fluorescence emission data were exported to an Excel work sheet. The Fluo-3 fluorescence or SBFI fluorescence ratios (340/380) versus time were analyzed and concentration-response graphs generated using GraphPad Prism software (GraphPad Software Inc., San Diego, CA)."}, "[5]": {"tested_on": "sodium channel", "details": "at a concentration of 5 μM, Neuro-2a cells; cited from earlier work"}, "[6]": {"tested_on": "voltage-gated sodium channels", "test": "Antagonism of veratridine-stimulated Na+ influx in neocortical neurons (SBFI)", "type": "cell-based, Swiss-Webster mice", "details": "for IC50: primary mouse neocortical neurons, three-parameter logistic fit", "method": "as §1\n[Na^+]i measurement and full in-situ calibration of sodium-binding benzofuran isophthalate (SBFI) fluorescence ratio were performed as described previously. Cells grown in 96-well plates were washed four times with Locke's buffer using an automated microplate washer (BioTek Instruments, Winooski, VT). After measuring the background fluorescence of each well, cells were incubated for 1 h at 37°C with dye-loading buffer (100 μL/well) containing 10 μM SBFI-AM (Invitrogen) and 0.02% Pluronic F-127 (Invitrogen). Cells were washed five times with Locke's buffer, leaving a final volume of 150 μL in each well. Jamaicamide addition and preincubation was as described above for Ca^2+ concentration determination. […] Fluorescence readings were taken once every 5 s for 60 s to establish the baseline, then either vehicle (control) or veratridine was added and fluorescence was monitored for an additional 260 s. After correcting for background fluorescence, SBFI fluorescence ratios (340/380) and concentration-response graphs were generated.\nas §2"}}}
{"smiles": "CC(=O)O[C@@H]1c2nc(cs2)C(=O)O[C@@H](CCCC(C)(Cl)Cl)[C@H](C)C(=O)O[C@@H](C(C)(C)O)c2nc(cs2)C(=O)OC1(C)C", "note": "[compound 1, hectochlorin]", "values": [{"measurement": "Effect on actin polymerization", "setting": "[1]", "result": "enhances actin polymerization"}, {"measurement": "LD50", "setting": "[2]", "result": 0.86, "unit": "µM"}, {"measurement": "LD50", "setting": "[3]", "result": 1.20, "unit": "µM"}]}
{"smiles": "CO/C(=C/C(=O)N1C(=O)C=C[C@@H]1C)CCNC(=O)CC/C=C/C(C)CC/C(=C/Cl)CCCC#CBr", "note": "(stereo partly drawn) [compound 2, jamaicamide A]", "values": [{"measurement": "IC50", "setting": "[4]", "result": 1.82, "unit": "µM"}, {"measurement": "Potency relative to the other two jamaicamides tested (Ca2+ influx)", "setting": "[4]; versus 3 and 12", "result": "2–3 times"}, {"measurement": "Sodium channel blocking activity", "setting": "[5]", "result": "sodium channel blocking activity"}, {"measurement": "IC50", "setting": "[6]", "result": 1.1, "unit": "µM"}, {"measurement": "Potency relative to the other two jamaicamides as a sodium channel blocker (Na+ influx)", "setting": "[6]; versus 3 and 12, neocortical neurons", "result": "2-3 times"}]}
{"smiles": "C#CCCC/C(=C\\Cl)CCC(C)/C=C/CCC(=O)NCC/C(=C\\C(=O)N1C(=O)C=C[C@@H]1C)OC", "note": "(stereo partly drawn) [compound 3, jamaicamide B]", "values": [{"measurement": "IC50", "setting": "[4]", "result": 6.88, "unit": "µM"}, {"measurement": "Sodium channel blocking activity", "setting": "[5]", "result": "sodium channel blocking activity"}, {"measurement": "IC50", "setting": "[6]", "result": 3.6, "unit": "µM"}]}
{"smiles": "CC1C(=O)OC(C(C)(C)O)c2nc(cs2)C(=O)OC(C)(C)C(O)c2nc(cs2)C(=O)OC1CCCC(C)(Cl)Cl", "note": "(stereo not drawn) [compound 5, Hectochlorin B]", "values": [{"measurement": "LD50", "setting": "[2]", "result": 0.31, "unit": "µM"}, {"measurement": "LD50", "setting": "[3]", "result": 0.32, "unit": "µM"}]}
{"smiles": "COC(=CC(=O)N1C(=O)C=CC1C)CCNC(=O)CCC=CC(C)CCC(=CCl)CCCC#CI", "note": "(stereo not drawn) [compound 12, jamaicamide F]", "values": [{"measurement": "IC50", "setting": "[4]", "result": 4.3, "unit": "µM"}, {"measurement": "IC50", "setting": "[6]", "result": 2.3, "unit": "µM"}]}
